Assay [1] deals with T1, Mitogen-activated protein kinase 8 (Homo sapiens, UniProt P45983). The settings on record: dose 2.0 nM.
In assay [2] the target is Mitogen-activated protein kinase 9 (Homo sapiens, UniProt P45984). The assay can be described thus: Inhibition of JNK2 (unknown origin).
Assay [3] deals with T1, Mitogen-activated protein kinase 8. The assay can be described thus: Inhibition of JNK1 (unknown origin).
Assay [4] deals with A549. The experiment in a line: Anti-fibrotic activity in human A549 cells assessed as reduction in TGFbeta1-induced c-Jun expression at 0.3 uM by Western blot analysis. Type of assay: functional, cell-based.
For assay [5], the system named is A549. The experiment in a line: Anti-fibrotic activity in human A549 cells assessed as reduction in TGFbeta1-induced fibronectin expression at 0.3 uM by Western blot analysis. Type of assay: functional, cell-based. (In western blotting, separated proteins are transferred to a membrane and probed.)
In assay [6] the target is T1, Mitogen-activated protein kinase 8. The settings on record: dose 10.0 nM.

SMILES strings stand for the structures. Active and inactive are the calls of the source. The rule behind the calls is not given here.

Sequence of Mitogen-activated protein kinase 9 (P45984 whole entry): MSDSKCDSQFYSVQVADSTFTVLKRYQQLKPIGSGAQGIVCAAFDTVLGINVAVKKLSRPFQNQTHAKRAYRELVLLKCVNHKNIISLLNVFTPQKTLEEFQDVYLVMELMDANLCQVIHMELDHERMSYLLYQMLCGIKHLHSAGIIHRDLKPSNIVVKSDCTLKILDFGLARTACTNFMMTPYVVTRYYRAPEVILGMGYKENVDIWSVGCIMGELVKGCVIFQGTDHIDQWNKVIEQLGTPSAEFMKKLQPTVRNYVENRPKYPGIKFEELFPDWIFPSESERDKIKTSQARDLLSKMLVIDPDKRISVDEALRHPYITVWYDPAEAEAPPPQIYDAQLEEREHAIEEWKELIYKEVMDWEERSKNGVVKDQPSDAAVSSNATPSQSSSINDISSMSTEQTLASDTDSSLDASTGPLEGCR
T1 sequence (P45983 whole entry): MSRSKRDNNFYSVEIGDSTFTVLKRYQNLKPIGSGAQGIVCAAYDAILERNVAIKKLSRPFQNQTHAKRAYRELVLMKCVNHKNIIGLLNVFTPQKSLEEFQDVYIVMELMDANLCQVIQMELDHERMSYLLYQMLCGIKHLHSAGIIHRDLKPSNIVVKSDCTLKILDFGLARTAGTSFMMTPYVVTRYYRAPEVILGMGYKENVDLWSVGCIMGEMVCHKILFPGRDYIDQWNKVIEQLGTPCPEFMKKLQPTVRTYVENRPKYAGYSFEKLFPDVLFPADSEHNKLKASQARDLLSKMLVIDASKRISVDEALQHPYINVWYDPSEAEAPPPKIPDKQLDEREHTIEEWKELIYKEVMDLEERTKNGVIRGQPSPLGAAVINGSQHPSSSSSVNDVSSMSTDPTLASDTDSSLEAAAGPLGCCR

For the molecule `NC(=O)c1ccccc1Nc1nc(Nc2ccc(C(=O)N3CC4CC(C3)O4)cc2)ncc1Br`, in assay [1], the inhibition was 10.8%.
Molecule `NC(=O)c1ccccc1Nc1nc(Nc2ccc(C(=O)N3CCC4(CCCO4)CC3)cc2)ncc1Br` showed an inhibition in assay [1] of 47.6%.
As to `NC(=O)c1ccccc1Nc1nc(Nc2ccc(C(=O)N3CC4CCC(C3)N4)cc2)ncc1Br`, the inhibition in assay [1] was found to be 45.1%.
As to `NC(=O)c1ccccc1Nc1nc(Nc2ccc(C(=O)N3CCC4(CC3)OCCO4)cc2)ncc1Br`, in assay [1], the inhibition was 15%.
On to `NC(=O)c1ccccc1Nc1nc(Nc2ccc(C(=O)N3CCC4(CCOC4)CC3)cc2)ncc1Br`, for which the IC50 in assay [2] came out at 7.4 nM; in assay [3], 1.4 nM. The molecule further came in with an inhibition in assay [1] of 60.4%.
For the molecule `NC(=O)c1ccccc1Nc1nc(Nc2ccc(C(=O)N3CCC4(CCCCC4)CC3)cc2)ncc1Br`, the inhibition result in assay [1] was “inactive”.
Same read-out and setting: the figure for `NC(=O)c1ccccc1Nc1nc(Nc2ccc(C(=O)N3C[C@H]4C[C@@H]3CN4)cc2)ncc1Br` is 51.3%; for `NC(=O)c1ccccc1Nc1nc(Nc2ccc(C(=O)N3C4CCC3COC4)cc2)ncc1Br` it is 46.3%.
As to `NC(=O)c1ccccc1Nc1nc(Nc2ccc(C(=O)N3CCC4(CCNCC4)CC3)cc2)ncc1Br`, the inhibition in assay [1] worked out at 33.2%.
The same measure, in the same setting: the figure for `NC(=O)c1ccccc1Nc1nc(Nc2ccc(C(=O)N3CCC4(CCOCC4)CC3)cc2)ncc1Br` is 46.8%.
Regarding `CN1CC2CCC(C1)N2C(=O)c1ccc(Nc2ncc(Br)c(Nc3ccccc3C(N)=O)n2)cc1`, the IC50 in assay [2] worked out at 12.6 nM; in assay [3], 1.5 nM. Besides, the inhibition in assay [1] was 56.6%.
As to `NC(=O)c1ccccc1Nc1nc(Nc2ccc(C(=O)N3CC4CC3CO4)cc2)ncc1Br` (stereo not drawn), the result in the assay on A549 [4] and in the assay on A549 [5] was Active. Further, the IC50 came out at 8.3 nM in assay [2] and 0.8 nM in assay [3]. The inhibition in assay [1] was 76.1%.
Regarding `CN1C[C@H]2C[C@@H]1CN2C(=O)c1ccc(Nc2ncc(Br)c(Nc3ccccc3C(N)=O)n2)cc1`, the inhibition in assay [1] is 49.3%.
For the molecule `NC(=O)c1ccccc1Nc1nc(Nc2ccccc2)ncc1Br`, the IC50 in assay [2] worked out at 9.4 nM; in assay [3], 3 nM. For the same molecule, the inhibition in assay [1] turned out to be 18.1%; in assay [6], 62.1%.
On to `NC(=O)c1ccccc1Nc1nc(Nc2ccc(C(=O)N3CCC4(CCNC4)CC3)cc2)ncc1Br`, for which the inhibition in assay [1] was found to be 49.9%.
Take `NC(=O)c1ccccc1Nc1nc(Nc2ccc(C(=O)N3CCC4(CCCC4)CC3)cc2)ncc1Br`: in assay [1], the inhibition result was “inactive”.
Molecule `NC(=O)c1ccccc1Nc1nc(Nc2ccc(C(=O)N3C4CCC3CNC4)cc2)ncc1Br` displayed an inhibition in assay [1] of 34.4%.

As usually defined, the inhibition is the drop in the measured response relative to a control, in per cent. Usually IC50 stands for the concentration that inhibits the measured activity by half. The low end stands for higher potency, the high end for lower potency.

The values are drawn from ChEMBL document CHEMBL6087431, “Discovery of a selective and potent inhibitor of c-Jun N-terminal kinase 1 with anti-pulmonary fibrosis effect” (Bioorg Med Chem Lett, 2025).
